These are literature values, as cited in patent publication US7585520B2, “Compositions containing both sedative and non-sedative antihistamines and sleep aids” (Collegium Pharmaceutical, Inc., priority 2001, dated 2009).

SMILES strings stand for the structures.

For the data set the following is noted: drug or active metabolite.
With `COc1ccc(CCN2CCC(Nc3nc4ccccc4n3Cc3ccc(F)cc3)CC2)cc1` [Astemizole], the Elimination half-life was 20 to 30 h.
As for `Clc1ccc2c(c1)CCc1cccnc1C2=C1CCNCC1` [Descarboethoxyloratidine], the Elimination half-life was 17.3 to 24 h.
For the compound `Oc1ccc(CCN2CCC(Nc3nc4ccccc4n3Cc3ccc(F)cc3)CC2)cc1` [Desmethylastemizole], the Elimination half-life was 290 h.
`CC(C)(C)c1ccc(C(=O)CCCN2CCC(OC(c3ccccc3)c3ccccc3)CC2)cc1` [Ebastine]: the Elimination half-life was 13 to 16 h.
With `CN(c1nccc(=O)[nH]1)C1CCN(c2nc3ccccc3n2Cc2ccc(F)cc2)CC1` [Mizolazine], the Elimination half-life was 8 to 13 h.
